Molecular target: T1, Autotaxin enzyme (ATX) (Homo sapiens, UniProt Q13822)
T1 construct: purchased Echelon Biosciences, Inc. E-4000
Experiment: In vitro ATX assay (enzymatic ATX inhibition, LPC 14:0 substrate, choline oxidase/HRP absorbance readout)
Format: biochemical
Conditions: 0.3 mM LPC 14:0, 37° C., 4 hours, absorbance 555 nm
Procedure, shortened: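 Human ATX (10 ng/mL as added) in pH 9.0 Tris buffer with NaCl, MgCl2, CoCl2 and Triton X-100 was preincubated with compound for 15 min at 37 °C. LPC 14:0 (0.3 mM final) was then hydrolysed for 4 h at 37 °C. Released choline was detected by choline oxidase/HRP with 4-AAP/TOOS, read after 15 min RT as absorbance at 555 nm, giving banded IC50 values.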

| Structure (SMILES) | IC50 [nM] |
| --- | --- |
| O=C(c1cnc(NCc2cc(OC(F)(F)F)cc(C3CC3)c2)nc1)N1CCC12CN(CC(F)F)C2 [Example 149, (2-((3-Cyclopropyl-5-(trifluoromethoxy)benzyl)amino)pyrimidin-5-yl) (6-(2,2-difluoroethyl)-1,6-diazaspiro[3.3]heptan-1-yl)methanone] | < 100 |
| O=C(c1cnc(NCc2cc(OC(F)(F)F)cc(C3CC3)c2)nc1)N1CCC12CCOC2 (single isomer, unassigned) [Example 116, (2-((3-Cyclopropyl-5-(trifluoromethoxy)-benzyl)amino)pyrimidin-5-yl)(6-oxa-1-azaspiro[3.4]octan-1-yl) methanone] | < 100 |
| O=C(c1cnc(NCc2cc(OC(F)(F)F)cc(C3CC3)c2)nc1)N1CCC2COCC21 (stereo not drawn) [Example 111, (2-((3-cyclopropyl-5-(trifluoromethoxy)benzyl)ami-no)pyrimidin-5-yl)(hexahydro-1H-furo[3,4-b]pyrrol-1-yl)methanone] | < 100 |
| CC(C)c1cc(CNc2ncc(C(=O)N3CCCCC3)cn2)cc(OC(F)(F)F)c1 [Example 22] | 100 to 1000 |
| O=C(c1cnc(NCc2ccc(Cl)c(Cl)c2)nc1)N1CCC12COC2 [Example 51] | ≥ 1000 |
| CC(C)c1cc(CNc2ccc(C(=O)N3CCC34COC4)cn2)cc(OC(F)(F)F)c1 [Example 76, (6-((3-Isopropyl-5-(trifluoromethoxy)benzyl)amino)pyridin-3-yl)(6-oxa-1-azaspiro[3.3]heptan-1-yl)methanone] | < 100 |
| O=C(c1cnc(NC2Cc3ccc(Cl)cc3C2)nc1)N1CCC12COC2 (stereo not drawn) [Example 33] | < 100 |
| CS(=O)(=O)C1CN(C(=O)c2cnc(NCc3cc(OC(F)(F)F)cc(C4CC4)c3)nc2)C1 [Example 88, (2-((3-cyclopropyl-5-(trifluoromethoxy)benzyl)ami-no)pyrimidin-5-yl)(3-(methylsulfonyl)azetidin-1-yl)methanone] | 100 to 1000 |
| CCOc1cc(CNc2ncc(C(=O)N3CCC3C(C)(C)O)cn2)cc(OC(C)C)c1 (stereo not drawn) [Example 160, (2-((3-Ethoxy-5-isopropoxybenzyl)amino)pyrimidin-5-yl) (2-(2-hydroxypropan-2-yl)azetidin-1-yl)methanone] | < 100 |
| Cc1ccc2c(c1)CC(Nc1ncc(C(=O)N3CCC34COC4)cn1)C2 (stereo not drawn) [Example 124, (2-((5-Methyl-2,3-dihydro-1H-inden-2-yl)amino)pyrimidin-5-yl)(6-oxa-1-azaspiro[3.3]heptan-1-yl)methanone] | 100 to 1000 |
| CC(C)c1cc(CNc2ncc(C(=O)N3CCC3C)cn2)cc(OC(F)(F)F)c1 (single isomer, unassigned) [Example 69, (2-((3-Isopropyl-5-(trifluoromethoxy)benzyl)amino)pyrimidin-5-yl)(2-methylazetidin-1-yl)methanone] | < 100 |
| CN1CC2(CCCN2C(=O)c2cnc(NCc3cc(OC(F)(F)F)cc(C4CC4)c3)nc2)C1 [Example 157, (2-((3-Cyclopropyl-5-(trifluoromethoxy)benzyl)amino)pyrimidin-5-yl)(2-methyl-2,5-diazaspiro[3.4]octan-5-yl)methanone] | < 100 |
| O=C(c1cnc(NCc2cc(OC(F)(F)F)cc(C3CC3)c2)nc1)N1CCC12CCCOC2 (single isomer, unassigned) [Example 121, (2-((3-Cyclopropyl-5-(trifluoromethoxy)benzyl)amino)-pyrimidin-5-yl)(6-oxa-1-azaspiro[3.5]nonan-1-yl)methanone] | < 100 |
| O=C(c1cnc(NCc2cc(Cl)ccc2Cl)nc1)N1CCC12COC2 [Example 54] | 100 to 1000 |
| O=C(c1cnc(NCc2cc(OCC3CC3)cc(OC(F)(F)F)c2)nc1)N1CCC12COC2 [Example 27] | < 100 |
| N#Cc1cc(CNc2ncc(C(=O)N3CCC34COC4)cn2)cc(OC(F)(F)F)c1 [Example 139, 3-(((5-(6-Oxa-1-azaspiro[3.3]heptane-1-carbonyl)pyrimidin-2-yl)amino)methyl)-5-(trifluoromethoxy)benzonitrile] | 100 to 1000 |
| CC(C)Oc1cc(CNc2ncc(C(=O)N3CCC34COC4)cn2)cc(C2CC2)c1 [Example 38] | < 100 |
| CC(C)c1cc(CNc2cnc(C(=O)N3CCC34COC4)cn2)cc(OC(F)(F)F)c1 [Example 75, (5-((3-Isopropyl-5-(trifluoromethoxy)benzyl)amino)pyrazin-2-yl)(6-oxa-1-azaspiro[3.3]heptan-1-yl)methanone] | < 100 |
| O=C(c1cnc(NCc2cccc(S(F)(F)(F)(F)F)c2)nc1)N1CCC12COC2 [Example 24] | 100 to 1000 |
| O=C(c1cnc(NCc2cc(OC(F)(F)F)cc(C3CC3)c2)nc1)N1CC(O)C1 [Example 83, (2-((3-cyclopropyl-5-(trifluoromethoxy)benzyl)ami-no)pyrimidin-5-yl)(3-hydroxyazetidin-1-yl)-methanone] | 100 to 1000 |
| CC(C)(O)C1CCN1C(=O)c1cnc(NCc2cc(C3CC3)cc(C3CC3)c2)nc1 (stereo not drawn) [Example 65] | < 100 |
| CCc1cc(CNc2ncc(C(=O)N3CCC34COC4)cn2)cc(OC(F)(F)F)c1 [Example 123, (2-((3-Ethyl-5-(trifluoromethoxy)benzyl)amino)pyrimidin-5-yl)(6-oxa-1-azaspiro[3.3]heptan-1-yl)methanone] | < 100 |
| N#Cc1ccc2c(c1)CC(Nc1ncc(C(=O)N3CCC34COC4)cn1)C2 (stereo not drawn) [Example 34] | 100 to 1000 |
| O=C(c1ccc(NCc2cc(OC(F)(F)F)cc(C3CC3)c2)nc1)N1CCC12COC2 [Example 77, (6-((3-Cyclopropyl-5-(trifluoromethoxy)benzyl)amino)pyridin-3-yl)(6-oxa-1-azaspiro[3.3]heptan-1-yl)methanone] | < 100 |
| CN1CCC2(CC1)CCN2C(=O)c1cnc(NCc2cc(OC(F)(F)F)cc(C3CC3)c2)nc1 [Example 112, (2-((3-cyclopropyl-5-(trifluoromethoxy)benzyl)ami-no)pyrimidin-5-yl)(7-methyl-1,7-diazaspiro[3.5]nonan-1-yl)methanone] | < 100 |
| O=C(c1cnc(NCc2cc(OC(F)(F)F)cc(C3CC3)c2)nc1)N1CCC12CN(C1CCC1)C2 [Example 144, (6-Cyclobutyl-1,6-diazaspiro[3.3]heptan-1-yl)(2-((3-cyclopropyl-5-(trifluoromethoxy)benzyl)amino)pyrimidin-5-yl)methanone] | < 100 |
| CC1CCN1C(=O)c1cnc(N[C@@H]2Cc3ccc(Cl)cc3C2)nc1 (stereo partly drawn) [Example 133, (2-(((R)-5-Chloro-2,3-dihydro-1H-inden-2-yl)amino)pyrimidin-5-yl)(2-methylazetidin-1-yl)methanone] | < 100 |
| O=C(c1ccc(NCc2cccc(OC(F)(F)F)c2)nn1)N1CCC12COC2 [Example 72, 6-Oxa-1-azaspiro[3.3]heptan-1-yl(6-((3-(trifluoromethoxy)benzyl)amino)pyridazin-3-yl)methanone] | ≥ 1000 |
| O=C(c1cnc(NCc2cc(OC(F)(F)F)cc(C3CC3)c2)nc1)N1CCC12CN(CC(F)(F)F)C2 [Example 148, (2-((3-Cyclopropyl-5-(trifluoromethoxy)benzyl)amino)pyrimidin-5-yl) (6-(2,2,2-trifluoroethyl)-1,6-diazaspiro[3.3]heptan-1-yl)methanone] | < 100 |
| O=C(c1cnc(NCc2cc(OC(F)(F)F)cc(C3CC3)c2)nc1)N1CCC12CS(=O)(=O)C2 [Example 107, (2-((3-cyclopropyl-5-(trifluoromethoxy)benzyl)ami-no)pyrimidin-5-yl)(6,6-dioxido-6-thia-1-azaspiro[3.3]heptan-1-yl)-methanone] | < 100 |
